US5225441A, “Treatment of periodontal disease” (Block Drug Company, Inc., priority 1987, dated 1993)

Assays:
[1] = tested on: periodontally supporting bone loss; conditions: beagle dog model; clinical index of periodontal disease progression; cited from earlier work
[2] = molecular target: periodontal cyclooxygenase; test: Inhibition of cyclooxygenase products (14C arachidonic acid incorporation) in inflamed human gingival tissue homogenate; assay type: biochemical; conditions: for % Control: 2 hours at 37° C.
Method: Inflamed human gingival tissue was obtained from patients with periodontitis who were undergoing routine periodontal surgery. The tissues were immediately stored in liquid nitrogen prior to use or were used fresh. The assay of cyclooxygenase products was performed as a modification of the assay of El Attar et al., J. Periodon. Res., 21, 169-176 (1986). Pooled tissue was weighed and homogenized at 0°-4° C. with a polytron (Brinkman) homogenizer in a 0.2 M TRIS buffer, pH 8.0, at a final concentration of 20 mg/ml. After centrifugation for 10 minutes at 1200×g, the supernatant was divided into 3 ml aliquots for incubation in the presence or absence of a test compound. The test compounds were tested in triplicate over a log range of 10^-3 to 10^-9 M. The reaction was started by the addition of 0.2 uCi of ^14 C arachidonic acid and carried out for 2 hours at 37° C. The reaction was stopped by the addition of two volumes of ethanol and allowed to remain at room temperature for 30 minutes prior to centrifugation for 10 minutes in order to remove the precipitate. The prostaglandin was then extracted.
Prostanoids were extracted as described by Powell, Methods in Eng., 86, 467 (1982) using a Sep-Pak-C18 cartridge from Walters Associates. The Sep-Pak was prepared by the sequential elusion of 20 milliliters of ethanol and 20 milliliters of water. The sample was then adjusted to 15% ethanol, pH 3.0, with acetic acid and applied to the column. The column was eluted with 20 ml of 15% ethanol, pH 3.0, 20 ml of petroleum ether and then the prostaglandin and Tx (thromboxane) was eluded with 10 ml of methyl formate. Thereafter, the methyl formate was evaporated to dryness with nitrogen and reconstituted in 32% […] (high-pressure liquid chromatography buffer).
These are readily separated and quantified using a 4.6×100 mm RP-18 Spheri-5u column from Brownlee Labs. A Flow-One radioactivity monitor simultaneously measured radioactivity. The elution was monitored at 192 nanometers.
The net incorporation of the ^14 C arachidonate was measured in the absence of the test substance in order to determine the maximal activity of the cyclooxygenase cascade. The percent inhibition for the inhibitors tested was then determined at several concentrations in order to calculate the IC50.

CC(C)Cc1ccc(C(C)C(=O)O)cc1 (centres unmarked) [ibuprofen]
Inhibition of periodontally supporting bone loss [1]: effective
IC50 ([2]; calculated from percent inhibition at several concentrations): 15 µM
% Control ([2]; drug concentration 1 × 10^-4 M, 100 µM): 27.5%
% Control ([2]; drug concentration 1 × 10^-5 M, 10 µM): 55.6%
% Control ([2]; drug concentration 10^-6 M, 1 µM): 92.6%
